Measured values as given in paper PMC2120756 (The Journal of Cell Biology, 1996).

Biological target: NHE-1 (Na+/H+ exchanger isoform 1) (Homo sapiens, UniProt P19634)
Assay: BCECF pHi recovery from NH4Cl acid load
Assay type: cell-based

Sequence of NHE-1 (Na+/H+ exchanger isoform 1) (P19634 whole entry, canonical isoform): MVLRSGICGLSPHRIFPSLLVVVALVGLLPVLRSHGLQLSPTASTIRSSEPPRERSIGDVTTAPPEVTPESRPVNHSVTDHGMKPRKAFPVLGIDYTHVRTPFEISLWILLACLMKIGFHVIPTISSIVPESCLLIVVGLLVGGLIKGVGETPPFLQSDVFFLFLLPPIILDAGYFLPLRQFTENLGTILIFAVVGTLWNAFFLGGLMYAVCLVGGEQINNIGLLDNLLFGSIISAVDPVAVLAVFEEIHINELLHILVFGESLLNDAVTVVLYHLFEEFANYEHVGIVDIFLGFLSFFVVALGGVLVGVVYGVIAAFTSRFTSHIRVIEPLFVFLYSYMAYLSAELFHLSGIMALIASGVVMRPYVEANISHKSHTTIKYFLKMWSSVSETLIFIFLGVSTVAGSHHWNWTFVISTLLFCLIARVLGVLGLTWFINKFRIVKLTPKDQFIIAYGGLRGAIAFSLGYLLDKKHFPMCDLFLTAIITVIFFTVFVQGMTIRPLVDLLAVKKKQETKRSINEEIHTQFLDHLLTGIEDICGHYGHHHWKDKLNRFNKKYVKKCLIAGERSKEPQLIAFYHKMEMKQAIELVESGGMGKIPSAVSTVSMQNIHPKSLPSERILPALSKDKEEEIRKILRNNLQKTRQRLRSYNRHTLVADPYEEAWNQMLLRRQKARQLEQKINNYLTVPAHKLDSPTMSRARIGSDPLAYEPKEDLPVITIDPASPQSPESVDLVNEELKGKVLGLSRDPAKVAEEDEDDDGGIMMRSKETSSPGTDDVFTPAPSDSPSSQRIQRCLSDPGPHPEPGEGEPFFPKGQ

Compound `CS(=O)(=O)c1cc(C(=O)N=C(N)N)ccc1N1CCCCC1` [HOE694] has an IC50 of roughly 10 nM.
